# Assay results: PubChem BioAssay (NCI)
#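 Exposure lasted 48 hours, with cells grown in 96-well plates and compounds tested at five concentrations. Here, GI50 denotes the concentration required for 50% inhibition of growth. TGI is the concentration that stops growth completely.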
# Key:
# Assay in all cases: inhibition of tumour cell growth, NCI panel, 48 h
# [1] = tested on: OVCAR-4 ovarian
# [2] = tested on: SNB-75 CNS
# [3] = tested on: 786-0 renal
# [4] = tested on: DU-145 prostate
# [5] = tested on: HCC-2998 colon
# [6] = tested on: MCF7 breast
# [7] = tested on: SNB-19 CNS
# [8] = tested on: IGROV1 ovarian
# [9] = tested on: LOX IMVI melanoma
# [10] = tested on: COLO 205 colon
# [11] = tested on: MDA-MB-435
# [12] = tested on: SK-MEL-5 melanoma
# [13] = tested on: SF-268 CNS
# [14] = tested on: MALME-3M melanoma
# [15] = tested on: U251 CNS
# [16] = tested on: HOP-92 NSCLC
# [17] = tested on: HCT-15 colon
# [18] = tested on: OVCAR-3 ovarian
# [19] = tested on: CAKI-1 renal
# [20] = tested on: RXF 393 renal
# [21] = tested on: MDA-MB-231 breast
# [22] = tested on: MOLT-4 leukemia
# [23] = tested on: TK-10 renal
# [24] = tested on: EKVX NSCLC
# [25] = tested on: KM12 colon
# [26] = tested on: NCI-H522 lung
# [27] = tested on: SK-MEL-28 melanoma
# [28] = tested on: OVCAR-8 ovarian
# [29] = tested on: UACC-62 melanoma
# [30] = tested on: T-47D breast
# [31] = tested on: OVCAR-5 ovarian
# [32] = tested on: NCI-H226 lung
# [33] = tested on: SR leukemia
# [34] = tested on: SF-539 CNS
# [35] = tested on: M14 melanoma
# [36] = tested on: SK-OV-3 ovarian
# [37] = tested on: HCT-116 colon
# [38] = tested on: RPMI-8226 leukemia
# [39] = tested on: SF-295 CNS
# [40] = tested on: A498 renal
# [41] = tested on: A549 NSCLC
# [42] = tested on: NCI/ADR-RES ovarian
# [43] = tested on: NCI-H460 lung
# [44] = tested on: HL-60(TB) leukemia
# [45] = tested on: HOP-62 NSCLC
# [46] = tested on: BT-549 breast
# [47] = tested on: UO-31 renal
# [48] = tested on: PC-3 prostate
# [49] = tested on: CCRF-CEM leukemia
# [50] = tested on: SN12C renal
# [51] = tested on: HS 578T breast
# [52] = tested on: UACC-257 melanoma
# [53] = tested on: HT29 colon
# [54] = tested on: SW-620 colon
# [55] = tested on: K-562 leukemia
# [56] = tested on: ACHN renal
# [57] = tested on: SK-MEL-2 melanoma
# [58] = tested on: NCI-H23 lung
smiles,measurement,setting,value
CCc1ccc2c(c1)N(CCO)C1=C(C(=O)OC1)C2c1cccc(Br)c1 (configuration not stated),GI50,[1],738 nM
same,TGI,[1],17300 nM
same,GI50,[2],307 nM
same,TGI,[2],8300 nM
same,GI50,[3],617 nM
same,TGI,[3],14700 nM
same,GI50,[4],658 nM
same,TGI,[4],11300 nM
same,GI50,[5],1050 nM
same,TGI,[5],7820 nM
same,GI50,[6],244 nM
same,TGI,[6],1680 nM
same,GI50,[7],806 nM
same,TGI,[7],18400 nM
same,GI50,[8],2560 nM
same,TGI,[8],25900 nM
same,GI50,[9],663 nM
same,TGI,[9],17200 nM
same,GI50,[10],358 nM
same,TGI,[10],1420 nM
same,GI50,[11],97.9 nM
same,TGI,[11],521 nM
same,GI50,[12],256 nM
same,TGI,[12],8670 nM
same,GI50,[13],722 nM
same,TGI,[13],15900 nM
same,GI50,[14],2580 nM
same,TGI,[14],25600 nM
same,GI50,[15],494 nM
same,TGI,[15],14500 nM
same,GI50,[16],3150 nM
same,TGI,[16],21500 nM
same,GI50,[17],584 nM
same,TGI,[17],15800 nM
same,GI50,[18],296 nM
same,TGI,[18],1230 nM
same,GI50,[19],711 nM
same,TGI,[19],23000 nM
same,GI50,[20],216 nM
same,TGI,[20],1820 nM
same,GI50,[21],2430 nM
same,TGI,[21],15700 nM
same,GI50,[22],620 nM
same,TGI,[22],19300 nM
same,GI50,[23],1810 nM
same,TGI,[23],18400 nM
same,GI50,[24],2450 nM
same,TGI,[24],20600 nM
same,GI50,[25],336 nM
same,TGI,[25],12500 nM
same,GI50,[26],173 nM
same,TGI,[26],2060 nM
same,GI50,[27],473 nM
same,TGI,[27],14300 nM
same,GI50,[28],847 nM
same,TGI,[28],19600 nM
same,GI50,[29],518 nM
same,TGI,[29],16700 nM
same,GI50,[30],540 nM
same,TGI,[30],19600 nM
same,GI50,[31],4370 nM
same,TGI,[31],20800 nM
same,GI50,[32],988 nM
same,TGI,[32],13200 nM
same,GI50,[33],409 nM
same,TGI,[33],20300 nM
same,GI50,[34],458 nM
same,TGI,[34],10100 nM
same,GI50,[35],525 nM
same,TGI,[35],10800 nM
same,GI50,[36],420 nM
same,TGI,[36],10100 nM
same,GI50,[37],449 nM
same,TGI,[37],14000 nM
same,GI50,[38],983 nM
same,TGI,[38],33500 nM
same,GI50,[39],374 nM
same,TGI,[39],13200 nM
same,GI50,[40],373 nM
same,TGI,[40],8840 nM
same,GI50,[41],655 nM
same,TGI,[41],14800 nM
same,GI50,[42],278 nM
same,TGI,[42],2210 nM
same,GI50,[43],397 nM
same,TGI,[43],11900 nM
same,GI50,[44],317 nM
same,TGI,[44],2210 nM
same,GI50,[45],462 nM
same,TGI,[45],14500 nM
same,GI50,[46],1350 nM
same,TGI,[46],19700 nM
same,GI50,[47],1050 nM
same,TGI,[47],18100 nM
same,GI50,[48],491 nM
same,TGI,[48],16200 nM
same,GI50,[49],351 nM
same,TGI,[49],15600 nM
same,GI50,[50],1350 nM
same,TGI,[50],18900 nM
same,GI50,[51],468 nM
same,TGI,[51],20900 nM
same,GI50,[52],623 nM
same,TGI,[52],19600 nM
same,GI50,[53],342 nM
same,TGI,[53],4360 nM
same,GI50,[54],350 nM
same,TGI,[54],18700 nM
same,GI50,[55],368 nM
same,TGI,[55],14700 nM
same,GI50,[56],1610 nM
same,TGI,[56],20400 nM
same,GI50,[57],300 nM
same,TGI,[57],7140 nM
same,GI50,[58],660 nM
same,TGI,[58],15600 nM
CN1C(=O)N(C)C2C1NN=c1s/c(=C\c3ccc(C(F)(F)F)cc3)c(=O)n12 (configuration not stated),GI50,[1],> 100000 nM
same,TGI,[1],> 100000 nM
same,GI50,[2],2110 nM
same,TGI,[2],18100 nM
same,GI50,[3],3820 nM
same,TGI,[3],> 100000 nM
same,GI50,[4],2960 nM
same,TGI,[4],> 100000 nM
same,GI50,[5],2680 nM
same,TGI,[5],> 100000 nM
same,GI50,[6],392 nM
same,TGI,[6],> 100000 nM
same,GI50,[7],2620 nM
same,TGI,[7],> 100000 nM
same,GI50,[8],2650 nM
same,TGI,[8],> 100000 nM
same,GI50,[9],854 nM
same,TGI,[9],> 100000 nM
same,GI50,[10],776 nM
same,TGI,[10],4720 nM
same,GI50,[11],312 nM
same,TGI,[11],1340 nM
same,GI50,[12],594 nM
same,TGI,[12],13900 nM
same,GI50,[13],10400 nM
same,TGI,[13],> 100000 nM
same,GI50,[14],8330 nM
same,TGI,[14],> 100000 nM
same,GI50,[15],569 nM
same,TGI,[15],14400 nM
same,GI50,[16],433 nM
same,TGI,[16],57900 nM
same,GI50,[17],488 nM
same,TGI,[17],> 100000 nM
same,GI50,[18],493 nM
same,TGI,[18],17700 nM
same,GI50,[19],3390 nM
same,TGI,[19],> 100000 nM
same,GI50,[20],1730 nM
same,TGI,[20],6770 nM
same,GI50,[21],2290 nM
same,TGI,[21],14000 nM
same,GI50,[22],2550 nM
same,TGI,[22],> 100000 nM
same,GI50,[23],4060 nM
same,TGI,[23],75900 nM
same,GI50,[24],4170 nM
same,TGI,[24],> 100000 nM
same,GI50,[25],705 nM
same,TGI,[25],> 100000 nM
same,GI50,[26],355 nM
same,TGI,[26],2250 nM
same,GI50,[27],10200 nM
same,TGI,[27],> 100000 nM
same,GI50,[28],2710 nM
same,TGI,[28],55700 nM
same,GI50,[29],662 nM
same,TGI,[29],> 100000 nM
same,GI50,[30],1720 nM
same,TGI,[30],> 100000 nM
same,GI50,[31],3200 nM
same,TGI,[31],> 100000 nM
same,GI50,[32],27000 nM
same,TGI,[32],> 100000 nM
same,GI50,[33],329 nM
same,TGI,[33],> 100000 nM
same,GI50,[34],983 nM
same,TGI,[34],6260 nM
same,GI50,[35],1360 nM
same,TGI,[35],> 100000 nM
same,GI50,[36],3960 nM
same,TGI,[36],46900 nM
same,GI50,[37],1550 nM
same,TGI,[37],> 100000 nM
same,GI50,[38],1650 nM
same,TGI,[38],> 100000 nM
same,GI50,[39],581 nM
same,TGI,[39],14600 nM
same,GI50,[40],2000 nM
same,TGI,[40],34600 nM
same,GI50,[41],1450 nM
same,TGI,[41],> 100000 nM
same,GI50,[42],696 nM
same,TGI,[42],37300 nM
same,GI50,[43],715 nM
same,TGI,[43],> 100000 nM
same,GI50,[44],413 nM
same,TGI,[44],18600 nM
same,GI50,[45],1310 nM
same,TGI,[45],20100 nM
same,GI50,[46],3660 nM
same,TGI,[46],> 100000 nM
same,GI50,[47],2210 nM
same,TGI,[47],> 100000 nM
same,GI50,[48],677 nM
same,TGI,[48],> 100000 nM
same,GI50,[49],955 nM
same,TGI,[49],> 100000 nM
same,GI50,[50],3890 nM
same,TGI,[50],> 100000 nM
same,GI50,[51],2130 nM
same,TGI,[51],81900 nM
same,GI50,[52],14500 nM
same,TGI,[52],> 100000 nM
same,GI50,[53],440 nM
same,TGI,[53],> 100000 nM
same,GI50,[54],659 nM
same,TGI,[54],> 100000 nM
same,GI50,[55],431 nM
same,TGI,[55],> 100000 nM
same,GI50,[56],2080 nM
same,TGI,[56],38500 nM
same,GI50,[57],2590 nM
same,TGI,[57],24100 nM
same,GI50,[58],2490 nM
same,TGI,[58],> 100000 nM
